According to patent US10597388B2, “Pyridazinone herbicides” (FMC CORPORATION, priority 2014, dated 2020):

Assays:
Assay in all cases: Test E greenhouse herbicide test, pre- and postemergence
Type in all cases: in vivo
[1] = test system: crabgrass, Brazilian (Brazilian crabgrass, Digitaria horizontalis)
Outline: (§1)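 For each species, sown seed in silt loam and young plants (2 to 18 cm) in a peat/vermiculite medium were each treated with compound dissolved in surfactant-containing, non-phytotoxic solvent. After 14 to 21 d under greenhouse conditions, effects were visually rated, 100 meaning complete control.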

[2] = test system: dayflower (Virginia (VA) dayflower, Commelina virginica)
Outline: as §1

[3] = test system: goosegrass (Eleusine indica); conditions: Preemergence
Outline: as §1

[4] = test system: nutsedge, yellow (yellow nutsedge, Cyperus esculentus); conditions: Preemergence
Outline: as §1

[5] = test system: pigweed, palmer (palmer pigweed, Amaranthus palmeri)
Outline: as §1

kochia (Kochia scoparia) = test system: kochia (Kochia scoparia)
Outline: as §1

[6] = test system: surinam grass (Brachiaria decumbens); conditions: Preemergence
Outline: as §1

[7] = test system: barnyardgrass (Echinochloa crus-galli)
Outline: as §1

[8] = test system: johnsongrass (Sorghum halepense); conditions: Preemergence
Outline: as §1

[9] = test system: waterhemp (common waterhemp, Amaranthus rudis)
Outline: as §1

[10] = 62 g ai/ha, Postemergence, scale 0 to 100 (0 no effect, 100 complete control)
[11] = 62 g ai/ha, Preemergence, scale 0 to 100 (0 no effect, 100 complete control)
[12] = 125 g ai/ha, Postemergence, scale 0 to 100 (0 no effect, 100 complete control)
[13] = 250 g ai/ha, Postemergence, scale 0 to 100 (0 no effect, 100 complete control)
[14] = Postemergence, 31 g ai/ha, visual, scale 0 no effect to 100 complete control
[15] = Preemergence, 31 g ai/ha, scale 0 to 100, 0 no effect, 100 complete control
[16] = Preemergence, 125 g ai/ha, visual, scale 0 no effect to 100 complete control
[17] = Preemergence, 250 g ai/ha, visual, scale 0 no effect to 100 complete control
[18] = 62 g ai/ha, scale 0 to 100 (0 no effect, 100 complete control)
[19] = 31 g ai/ha, scale 0 to 100, 0 no effect, 100 complete control
[20] = 125 g ai/ha, visual, scale 0 no effect to 100 complete control
[21] = 250 g ai/ha, visual, scale 0 no effect to 100 complete control
[22] = 125 g ai/ha, scale 0 to 100 (0 no effect, 100 complete control)
[23] = 125 g ai/ha, Preemergence, scale 0 to 100 (0 no effect, 100 complete control)

CCc1sc2c(C)cc(C)cc2c1-c1c(O)c(C)nn(C)c1=O [Compound 57]
80: Plant response rating, Dayflower, VA [2, 17] | Plant response rating, Barnyardgrass [7, 14] | Plant response rating, Waterhemp [9, 15] | Plant response rating, Waterhemp [9, 17]
75: Plant response rating, Kochia (kochia (Kochia scoparia); [13]) | Plant response rating, Kochia (kochia (Kochia scoparia); [16]) | Plant response rating, Barnyardgrass [7, 16] | Plant response rating, Waterhemp [9, 11] | Plant response rating, Waterhemp [9, 13]
25: Plant response rating, Dayflower, VA [2, 11]
90: Plant response rating, Barnyardgrass [7, 12] | Plant response rating, Barnyardgrass [7, 13]
50: Plant response rating, Kochia (kochia (Kochia scoparia); [14]) | Plant response rating, Waterhemp [9, 10] | Plant response rating, Waterhemp [9, 14]
35: Plant response rating, Dayflower, VA [2, 12] | Plant response rating, Pigweed, Palmer [5, 11] | Plant response rating, Pigweed, Palmer [5, 15] | Plant response rating, Johnsongrass [8, 21]
5: Plant response rating, Goosegrass [3, 20] | Plant response rating, Goosegrass [3, 21] | Plant response rating, Surinam Grass [6, 19]
60: Plant response rating, Nutsedge, Yellow [4, 22] | Plant response rating, Pigweed, Palmer [5, 13] | Plant response rating, Pigweed, Palmer [5, 17] | Plant response rating, Kochia (kochia (Kochia scoparia); [12])
40: Plant response rating, Crabgrass, Brazil [1, 16] | Plant response rating, Pigweed, Palmer [5, 23] | Plant response rating, Waterhemp [9, 23]
70: Plant response rating, Crabgrass, Brazil [1, 17] | Plant response rating, Nutsedge, Yellow [4, 21] | Plant response rating, Kochia (kochia (Kochia scoparia); [10]) | Plant response rating, Surinam Grass [6, 18]
65: Plant response rating, Kochia (kochia (Kochia scoparia); [11])
10: Plant response rating, Dayflower, VA [2, 14] | Plant response rating, Goosegrass [3, 19] | Plant response rating, Pigweed, Palmer [5, 14]
95: Plant response rating, Surinam Grass [6, 21]
30: Plant response rating, Crabgrass, Brazil [1, 13] | Plant response rating, Dayflower, VA [2, 13] | Plant response rating, Dayflower, VA [2, 16] | Plant response rating, Nutsedge, Yellow [4, 18] | Plant response rating, Pigweed, Palmer [5, 12] | Plant response rating, Johnsongrass [8, 18] | Plant response rating, Johnsongrass [8, 20] | Plant response rating, Waterhemp [9, 12]
0: Plant response rating, Crabgrass, Brazil [1, 11] | Plant response rating, Crabgrass, Brazil [1, 15] | Plant response rating, Dayflower, VA [2, 15] | Plant response rating, Goosegrass [3, 18] | Plant response rating, Nutsedge, Yellow [4, 19] | Plant response rating, Barnyardgrass [7, 11] | Plant response rating, Barnyardgrass [7, 15] | Plant response rating, Johnsongrass [8, 19]
15: Plant response rating, Crabgrass, Brazil [1, 14] | Plant response rating, Dayflower, VA [2, 10]
100: Plant response rating, Kochia (kochia (Kochia scoparia); [17]) | Plant response rating, Barnyardgrass [7, 17]
85: Plant response rating, Surinam Grass [6, 22] | Plant response rating, Barnyardgrass [7, 10]
20: Plant response rating, Crabgrass, Brazil [1, 10] | Plant response rating, Crabgrass, Brazil [1, 12] | Plant response rating, Pigweed, Palmer [5, 10] | Plant response rating, Kochia (kochia (Kochia scoparia); [15])
